Measurements from patent US20110135671A1, “PURINE DERIVATIVES FOR USE IN THE TREATMENT OF ALLERGIC, INFLAMMATORY AND INFECTIOUS DISEASES” (GLAXOSMITHKLINE LLC, priority 2008, published 2011).
Counter-ions that a name gives are not always drawn.

Experiments:
[1] = tested on: Interferon-α; experiment: Induction of Interferon-α using fresh human PBMCs; assay type: cell-based; settings: PBMC, 24 hr, relative to 2 μM resiquimod control, read-out: mean pEC50 for induction of IFN-α (converted)
Description: (§1) Assay for the Induction of Interferon-α and TNF-α Using Fresh Human Peripheral Blood Mononuclear Cells (PBMCs)
(§2) Compounds were dissolved and serially diluted in DMSO to give 100× the required concentration range using a Biomek 2000. 1 ul of test compound was transferred into 96-well tissue culture plates using a Biomek FX. Each compound was assayed in duplicate for each donor. Each plate contained a dilution series of the TLR7/8 agonist resiquimod as standard and Column 11 contained 1 μl of 200 μM resiquimod (giving a 2 μM final concentration, used to define the approximate maximal response to resiquimod).
(§3) Blood samples from two human donors were collected into sodium heparin (10 U/ml). 25 ml volumes of whole blood were overlaid onto 15 mls Histopaque in Leucosep tubes which were centrifuged at 800 g for 20 min and the band at the plasma/histopaque interface carefully removed. The collected cells were centrifuged at 2500 rpm for 10 min and the pellet resuspended in 10 ml of media (RPMI 1640 (Low endotoxin) supplemented with 10% v/v foetal calf serum (FCS, low endotoxin) 100 U/ml penicillin G, 100 μg/ml streptomycin, 10 mM L-glutamine and 1× non-essential amino acids). A 1:20 dilution of the cells was prepared using trypan blue & the cells counted using a haemocytometer. The PBMCs were diluted to give a final concentration of 2×10^6/ml and 100 ul of this cells suspension was added to wells containing 1 μl of diluted test compound.
(§4) The cell preparations were incubated for 24 hr (37° C., 95% air, 5% CO2) after which a sample of the supernatant was removed using the Biomek FX and assayed for both IFN-α and TNF-α using the MSD (Mesoscale Discovery) electrochemiluminescence assay platform. The IFN-α assay was carried out similarly to that described above. The TNF-α assay was carried out as per kit instructions (Cat No K111 BHB).
(§5) Cytokine released was expressed as a percentage of the 2 μM resiquimod control (column 11). This percentage was plotted against compound concentration and the pEC50 for the response determined by non-linear least squares curve fitting. For the IFN-α responses generally a 4 parameter logistic model was selected. For the TNF responses where a clear maximum response was obtained (i.e. a well defined plateau in the response was observed) then a 4 parameter model was generally used. If the upper asymptote of the curve wasn't well defined then the curve fitting was generally constrained to a maximal response of 100% (i.e., to the response to 2 μM resiquimod) or to the response of the highest concentration tested if this was greater than the resiquimod response. Some curves were bell shaped for one or both cytokines and the cytokine data on the down slope of the bell shaped response (i.e. concentrations above those giving the maximal response) were generally excluded from the fit, usually with the exception of the concentration immediately above the peak response. Curve fitting thus concentrated on the up slope of the dose response curve.

[2] = tested on: TNF-α; experiment: Induction of TNF-α using fresh human PBMCs; assay type: cell-based; settings: PBMC, 24 hr, relative to 2 μM resiquimod control, read-out: mean pEC50 for induction of TNF-α (converted)
Description: as §1, §2, §3, §4, §5

[3] = tested on: Interferon-α; experiment: Induction of Interferon-α using cryopreserved human PBMCs; assay type: cell-based; settings: PBMC, 24 h, normalised to 1 uM resiquimod, read-out: mean pEC50 for induction of Interferon-α (converted)
Description: Assay for the Induction of Interferon-α using Cryopreserved Human Peripheral Blood Mononuclear Cells (PBMCs)
Compounds were dissolved in DMSO. Serial 2-fold dilutions with DMSO were prepared and 0.25 μl dispensed into 384-well clear Greiner polypropylene plates.
Blood samples of up to 200 ml were obtained from healthy human donors. Whole blood in 25 ml volumes was overlaid onto 15 ml Ficoll gradients in Leucosep tubes, and centrifuged at 1000 g for 20 min. Cells in the band at the plasma/histopaque interface were carefully removed and washed twice with PBS (centrifuged at 400 g for 5 min to harvest). The final pellet was resuspended in freezing medium (90% Heat-inactivated serum, 10% DMSO) to a cell concentration of 4×10^7 cells/ml. The resuspended cells were then cryopreserved (frozen) using a rate controlled freezer, and stored at −140° C. for up to 4 months.
Incubation and Assay for Interferon-α
Immediately prior to assay, vials of cryopreserved (frozen) PBMCs were thawed rapidly in a water bath at 37° C. A 1:10 dilution of the cells in trypan blue was prepared and counted. The PBMCs were then diluted in growth media [RPMI 1640 containing 10% fetal calf serum (invitrogen), Penicillin+Streptavidin (Gibco cat. # 25030-024, 1:50), L-Glutamine 2 mM, and 1000 units/ml recombinant human IFN-gamma (Preprotech catalogue #300-02)] to a density of 1×10^6 cells/ml, and 50 ul/well dispensed to 384-well clear Greiner polypropylene plates containing 0.25 μl DMSO or test compound in 0.25 μl DMSO. […] Plates were incubated for 24 h at 37° C. in 5% CO2.
A multi-isoform immunoassay was used to quantify IFN-α in PBMC supernatants. Rabbit polyclonal antibody against human IFN-α (catalogue number 31101, Stratech Scientific) was diluted 1:10000 in assay buffer (RPMI 1640 containing 10% fetal calf serum, Invitrogen) and 20 μl was added to each well of an MSD (Meso-Scale Discovery) single small-spot 384-well GAR (goat anti-rabbit antibody coated) plate. The plate was incubated for 1 h at room temperature with vigorous shaking. Following three washes with PBS, 20 μl of cell supernatant were added to each well of the plate. The plate was then incubated for 1 h at room temperature with vigorous shaking. A pair of monoclonal antibodies to IFN-α (catalogue numbers 21100 and 21112, Stratech Scientific) were labelled with sulfo-TAG (MSD), diluted 1:1000 in assay buffer and 20 μl added to each well of the plate. The plate was further incubated for 1 h at room temperature with vigorous shaking. Following three washes with PBS, 30 μl of ×2 T buffer (MSD) was added to each well and the plate was read on an MSD Sector 6000 plate reader.
Data were normalised to internal plate controls of 1 uM resiquimod (n=16) and DMSO (n=16). pEC50 values were derived by 4-parameter curve fit with IRLS in ActivityBase, from 11-point, two-fold serial dilution of test compounds.

[4] = tested on: Interferon-α; experiment: Induction of Interferon-α following intranasal dosing in the mouse; assay type: in vivo; settings: female BALB/c mice, 2 hours after dosing, ELISA
Description: Assay for the Induction of Interferon-α Following Intranasal Dosing in the Mouse.
Example 46 was dissolved in 0.2% Tween 80 in saline and administered intranasally (5 μl in total between the nostrils) to female BALB/c mice (n=6) under general anaesthesia. Animals were euthanased 2 hours after dosing and a terminal blood sample was taken and serum levels of Interferon-α was measured using an ELISA assay. Mean serum levels of Interferon-α of 1253 pg/ml were measured. No Interferon-α was detected in vehicle treated controls.

[5] = tested on: IL-5; experiment: Allergen-driven cytokine assay using fresh human PBMCs from atopic volunteers (IL-5); assay type: cell-based; settings: at 0.04 μM; atopic donor PBMCs with Timothy grass antigen, up to 6 days
Description: (§6) Allergen-Driven Cytokine Assay Using Fresh Human Peripheral Blood Mononuclear Cells (PBMCs) from Atopic Volunteers
(§7) An assay based on co-culture of atopic human donor derived peripheral blood mononuclear cells (PBMCs) with allergen and test compounds was developed. After 5-6 days culture, cell supernatants were assayed for a range of cytokines.
(§8) Compounds were dissolved in DMSO, then serially diluted in growth medium (RPMI 1640 medium supplemented with 100 U/ml penicillin G, 100 μg/ml streptomycin, 10 mM L-glutamine) to give 4× the required concentration range in the presence of 0.04% DMSO. Each compound was assayed in triplicate at all concentrations.
(§9) Defibrinated human blood from volunteers known to be allergic to Timothy grass was centrifuged at 2500 rpm for 15 minutes. The upper layer of serum was collected and heat-inactivated at 56° C. for 30 minutes (HI-autologous serum). The lower layer of cells was resuspended in 50 ml PBS (+Ca +Mg), 25 ml diluted blood were overlaid onto 20 ml Lymphoprep in 50 ml tubes then centrifuged at 2500 rpm for 20 minutes at RT. The band at the serum/Lymphoprep interface was carefully removed. […]
(§10) Plates were incubated at 37° C. in 5% CO2 for up to 6 days. […] Cytokines and chemokines in supernatants were detected using Meso Scale Discovery 10 spot plates for Human TH1/Th2 cytokines.

[6] = tested on: IL-13; experiment: Allergen-driven cytokine assay using fresh human PBMCs from atopic volunteers (IL-13); assay type: cell-based; settings: at 0.2 μM; atopic donor PBMCs with Timothy grass antigen, up to 6 days
Description: as §6, §7, §8, §9, §10

SMILES | EC50 [1] [nM] | EC50 [2] [nM] | EC50 [3] [nM] | mean serum levels of Interferon-α [4] [pg/mL] | reduction of IL-5 production compared to the allergen control [5] [%] | reduction of IL-13 production compared to the allergen control [6] [%]
CCCCNc1nc(N)c2[nH]c(=O)n(CCCCN3CCN(C(C)(C)C)CC3)c2n1 [Example 41, 6-Amino-2-(butylamino)-9-{4-[4-(1,1-dimethylethyl)-1-piperazinyl]butyl}-7,9-dihydro-8H-purin-8-one] | < 100 | > 3160 | < 3160 |  |  | 
CCCCOc1nc(N)c2[nH]c(=O)n(CCCCN3CCN(C)CC3)c2n1 [Example 26, 6-Amino-2-(butyloxy)-9-[4-(4-methyl-1-piperazinyl)butyl]-7,9-dihydro-8H-burin-8-one] | < 100 | > 3160 | < 3160 |  |  | 
CCCCOc1nc(N)c2[nH]c(=O)n(CCCCCCN3CCN(C(C)(C)C)CC3)c2n1 [Example 57, 6-Amino-2-(butyloxy)-9-{6-[4-(1,1-dimethylethyl)-1-piperazinyl]hexyl}-7,9-dihydro-8H-purin-8-one] | < 1 | > 1000 | < 3160 |  |  | 
CCCCOc1nc(N)c2[nH]c(=O)n(CCCCN3CCN(C(C)(C)C)CC3)c2n1 [Example 32, 6-Amino-2-(butyloxy)-9-{4-[4-(1,1-dimethylethyl)-1-piperazinyl]butyl}-7,9-dihydro-8H-purin-8-one] | < 10 | > 1000 | < 3160 |  |  | 
CCCCOc1nc(N)c2[nH]c(=O)n(CCCCCN3CCN(C(C)C)CC3)c2n1 [Example 48, 6-Amino-2-(butyloxy)-9-{5-[4-(1-methylethyl)-1-piperazinyl]pentyl}-7,9-dihydro-8H-purin-8-one] | < 10 | > 1000 | < 3160 |  |  | 
CCCCOc1nc(N)c2[nH]c(=O)n(CCCCN3CCN(C(C)C)CC3)c2n1 [Example 29, 6-Amino-2-(butyloxy)-9-{4-[4-(1-methylethyl)-1-piperazinyl]butyl}-7,9-dihydro-8H-purin-8-one] | < 10 | > 1000 | < 3160 |  |  | 
CCCCOc1nc(N)c2[nH]c(=O)n(CCN3CCNCC3)c2n1 [Example 1, 6-Amino-2-(butyloxy)-9-[2-(1-piperazinyl)ethyl]-7,9-dihydro-8H-purin-8-one dihydrochloride salt] | < 100 | > 3160 | < 3160 |  |  | 
CCCCOc1nc(N)c2[nH]c(=O)n(CCCCN3CCN(CC)CC3)c2n1 [Example 27, 6-Amino-2-(butyloxy)-9-[4-(4-ethyl-1-piperazinyl)butyl]-7,9-dihydro-8H-burin-8-one] | < 10 | > 1000 | < 3160 |  |  | 
CCCCOc1nc(N)c2[nH]c(=O)n(CCCCCCN3CCNCC3)c2n1 [Example 54, 6-Amino-2-(butyloxy)-9-[6-(1-piperazinyl)hexyl]-7,9-dihydro-8H-purin-8-one] | < 10 | > 1000 | < 3160 |  |  | 
CCCCOc1nc(N)c2[nH]c(=O)n(CCCCCN3CCN(C)CC3)c2n1 [Example 46, 6-Amino-2-(butyloxy)-9-[5-(4-methyl-1-piperazinyl)pentyl]-7,9-dihydro-8H-purin-8-one] | < 1 | > 1000 | < 3160 | 1253 |  | 
CCC[C@H](C)Oc1nc(N)c2[nH]c(=O)n(CCCCCN3CCN(C(C)C)CC3)c2n1 [Example 52, 6-Amino-2-{[(1S)-1-methylbutyl]oxy}-9-{5-[4-(1-methylethyl)-1-piperazinyl]pentyl}-7,9-dihydro-8H-purin-8-one] |  |  | < 3160 |  | > 50 | > 50
CCCCOc1nc(N)c2[nH]c(=O)n(CCCN3CCN(C)CC3)c2n1 [Example 6, 6-Amino-2-(butyloxy)-9-[3-(4-methyl-1-piperazinyl)propyl]-7,9-dihydro-8H-purin-8-one] | < 100 | > 3160 | < 3160 |  |  | 
